According to US9353382B2, “Process, vectors and engineered cell lines for enhanced large-scale transfection” (National Research Council of Canada, priority 2008, dated 2016):

Assays:
[1] = test system: CHO-EBNA1c (clone 3E7) cells; assay: Effect of PKB (AKT) and valproic acid on transient gene expression (SEAP); format: cell-based, Chinese Hamster; details: 0.25 mM VPA added 24 hours post-transfection; days 5 to 8 post-transfection
Description: (§1) Secreted alkaline phosphatase activity determination: SEAP activity is measured as previously described using the colorimetric substrate paranitrophenyl phosphate (Durocher et al, 2000).
Referring to FIG. 10, the effect of PKB (AKT) and valproic acid (VPA) on transient gene expression in CHO-EBNA1c (clone 3E7) cells is illustrated. The CHO-EBNA1c cells were transfected with a mixture of SEAP-encoding oriP plasmids (pTT-SEAP) and stuffer DNA or pTT-AKTdd vector (AKTdd is a dominant-positive mutant of AKT). In some cases, 0.25 mM VPA was added 24 hours post-transfection. SEAP activity (ΔA410/min) was measured at days 5 to 8 post-transfection.

[2] = test system: HEK293-EBNA1t (clone 6E) cells; assay: Effect of FGF2 co-expression on transient SEAP expression in HEK293-EBNA1t cells; format: cell-based, human; details: 25% pTT-SEAP, 0-70% FGF2 plasmid; 7 days post-transfection
Description: as §1
(§2) Referring to FIG. 9, graphs are shown illustrating the effect of FGF2 (bFGF) co-expression on transient gene expression in HEK293-EBNA1t (clone 6E) cells (upper panel) and CHO-EBNA1c (clone 3E7) cells (lower panel). The HEK293-EBNA1t and CHO-EBNA1c cells were transfected with 25% pTT-SEAP vector and increasing amounts (0%, 15%, 30%, 45%, 60% and 70%) of FGF2-encoding pTT plasmid (the overall content of DNA was kept constant with non-coding stDNA). SEAP activity (OD/min at 410 nm) was measured in the supernatant 7 days post-transfection. From the upper panel it is evident that SEAP activity in HEK293-EBNA1t cells is decreased by co-expression of FGF2. From the lower panel it is evident that SEAP activity in CHO-EBNA1c cells is increased by co-expression of FGF2. […] Increased productivity in CHO cells may be due to a FGF-induced rRNA synthesis.

[3] = test system: CHO-EBNA1c (clone 3E7) cells; assay: Effect of FGF2 co-expression on transient SEAP expression in CHO-EBNA1c cells; format: cell-based, Chinese Hamster; details: 25% pTT-SEAP, 0-70% FGF2 plasmid; 7 days post-transfection
Description: as §1, §2

Compound	effect on transient gene expression (SEAP activity) [1]	SEAP activity on co-expression of FGF2 [2]	SEAP activity on co-expression of FGF2 [3]
CCCC(CCC)C(=O)O [valproic acid]	increases transient gene expression	–	–
FGF2	–	decreased	increased
